Inconclusive results and toxic doses are left out. Cut-off read from the data, not from the text of the source: active = T/C of 150% or more; inactive = T/C below 125%.
System: L1210 leukemia ip in BDF1 mice, survival T/C
Experiment: NCI In Vivo Anticancer Drug Screen. Data for tumor model L1210 Leukemia (intraperitoneal) in B6D2F1 (BDF1) mice
Details: endpoint: mean survival time, higher = longer survival
In short: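 Value reflects the ratio of survival in compound-treated mice to survival in vehicle-treated controls, with both groups carrying the same transplanted tumor.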

[1] = dose: 100.0 mg/kg/injection, schedule: Q01DX009 (ip), vehicle: saline with Tween-80
[2] = dose: 100.0 mg/kg/injection, schedule: Q04DX003 (ip), vehicle: saline with Tween-80
[3] = dose: 200.0 mg/kg/injection, schedule: Q04DX003 (ip), vehicle: saline with Tween-80
[4] = dose: 100.0 mg/kg/injection, schedule: Q01DX001 (ip), vehicle: other
[5] = dose: 200.0 mg/kg/injection, schedule: Q01DX001 (ip), vehicle: other
[6] = dose: 100.0 mg/kg/injection, schedule: Q01DX009 (ip), vehicle: saline
[7] = dose: 200.0 mg/kg/injection, schedule: Q01DX009 (ip), vehicle: saline
[8] = dose: 400.0 mg/kg/injection, schedule: Q01DX009 (ip), vehicle: saline
[9] = dose: 100.0 mg/kg/injection, schedule: Q01DX001 (ip), vehicle: saline
[10] = dose: 200.0 mg/kg/injection, schedule: Q01DX001 (ip), vehicle: saline
[11] = dose: 400.0 mg/kg/injection, schedule: Q01DX001 (ip), vehicle: saline
[12] = dose: 100.0 mg/kg/injection, schedule: Q04DX003 (ip), vehicle: Klucel (hydroxypropylcellulose) (HPC)
[13] = dose: 200.0 mg/kg/injection, schedule: Q04DX003 (ip), vehicle: Klucel (hydroxypropylcellulose) (HPC)
[14] = dose: 400.0 mg/kg/injection, schedule: Q04DX003 (ip), vehicle: Klucel (hydroxypropylcellulose) (HPC)

Measured: T/C

CCCCCC(=O)Oc1c(C(C)CC)cc([N+](=O)[O-])cc1[N+](=O)[O-] (configuration not stated)
inactive: dose: 6.25 mg/kg/injection, schedule: Q01DX009 (ip), vehicle: saline with Tween-80 111 % of control | dose: 12.5 mg/kg/injection, schedule: Q01DX009 (ip), vehicle: saline with Tween-80 88 % of control | dose: 25.0 mg/kg/injection, schedule: Q01DX009 (ip), vehicle: saline with Tween-80 90 % of control | dose: 25.0 mg/kg/injection, schedule: Q04DX002 (ip), vehicle: saline with Tween-80 89 % of control

C1CN2CCC1CC2
inactive: dose: 10.0 mg/kg/injection, schedule: Q01DX001 (ip), vehicle: saline 93 % of control | dose: 50.0 mg/kg/injection, schedule: Q01DX009 (ip), vehicle: saline with Tween-80 98 % of control | [1] 97 % of control | [2] 106 % of control | [3] 93 % of control

COC(=O)c1c(C)cc(OC(=O)c2c(C)cc(OC)c(C)c2OC)c(C)c1O
inactive: dose: 50.0 mg/kg/injection, schedule: Q01DX001 (ip), vehicle: other 103 % of control | [4] 97 % of control | [5] 92 % of control | dose: 400.0 mg/kg/injection, schedule: Q01DX001 (ip), vehicle: other 92 % of control

CC(O)COCc1ccccc1 (configuration not stated)
inactive: [6] 103 % of control | dose: 100.0 mg/kg/injection, schedule: Q04DX003 (ip), vehicle: saline 94 % of control | [7] 94 % of control | dose: 200.0 mg/kg/injection, schedule: Q04DX003 (ip), vehicle: saline 94 % of control | [8] 97 % of control | dose: 400.0 mg/kg/injection, schedule: Q04DX003 (ip), vehicle: saline 90 % of control

CCCCCCCCC(O)CCC (configuration not stated)
inactive: [6] 102 % of control | [7] 105 % of control | [8] 102 % of control

CCSC(=N)N=Nc1ccc(O)cc1
inactive: dose: 50.0 mg/kg/injection, schedule: Q01DX001 (ip), vehicle: saline 104 % of control | [9] 98 % of control | [10] 102 % of control

Cc1ccc(S(=O)(=O)N2CCc3ccccc3C(=O)C2)cc1
inactive: [9] 97 % of control | [10] 94 % of control | [11] 94 % of control

CCOC(=O)c1cnc(C)nc1Nc1ccccc1C
inactive: [12] 88 % of control | [13] 98 % of control | [14] 105 % of control

NCCN1Cc2ccccc2CCc2ccccc2C1
inactive: dose: 25.0 mg/kg/injection, schedule: Q01DX009 (ip), vehicle: Klucel (hydroxypropylcellulose) (HPC) 111 % of control | dose: 50.0 mg/kg/injection, schedule: Q01DX009 (ip), vehicle: Klucel (hydroxypropylcellulose) (HPC) 105 % of control | dose: 100.0 mg/kg/injection, schedule: Q01DX009 (ip), vehicle: Klucel (hydroxypropylcellulose) (HPC) 93 % of control

Nc1ncnc(N)c1NC(=O)c1ccc(Cl)cc1
inactive: dose: 25.0 mg/kg/injection, schedule: Q01DX001 (ip), vehicle: saline with Tween-80 107 % of control | dose: 50.0 mg/kg/injection, schedule: Q01DX001 (ip), vehicle: saline with Tween-80 104 % of control | dose: 100.0 mg/kg/injection, schedule: Q01DX001 (ip), vehicle: saline with Tween-80 120 % of control

C=CCNc1ccc([N+](=O)[O-])cc1[N+](=O)[O-]
inactive: dose: 100.0 mg/kg/injection, schedule: Q01DX001 (ip), vehicle: steriod suspending solution 91 % of control | dose: 200.0 mg/kg/injection, schedule: Q01DX001 (ip), vehicle: steriod suspending solution 98 % of control

CCOC(=O)C1(C2=NC(C)(C)CC(C)O2)CCCCC1 (configuration not stated)
inactive: dose: 100.0 mg/kg/injection, schedule: Q01DX009 (ip), vehicle: other 102 % of control | dose: 200.0 mg/kg/injection, schedule: Q01DX009 (ip), vehicle: other 100 % of control | dose: 400.0 mg/kg/injection, schedule: Q01DX009 (ip), vehicle: other 107 % of control

O=C(Nc1ccc(Cl)cc1)Oc1ccc(C2CCCCC2)cc1
inactive: dose: 100.0 mg/kg/injection, schedule: Q04DX002 (ip), vehicle: Klucel (hydroxypropylcellulose) (HPC) 100 % of control | dose: 200.0 mg/kg/injection, schedule: Q04DX002 (ip), vehicle: Klucel (hydroxypropylcellulose) (HPC) 107 % of control | dose: 400.0 mg/kg/injection, schedule: Q04DX002 (ip), vehicle: Klucel (hydroxypropylcellulose) (HPC) 110 % of control

Cc1cc(C(=O)O)c2cccc(C(F)(F)F)c2n1
inactive: [1] 112 % of control | [2] 111 % of control | dose: 200.0 mg/kg/injection, schedule: Q01DX009 (ip), vehicle: saline with Tween-80 103 % of control | [3] 114 % of control | dose: 400.0 mg/kg/injection, schedule: Q01DX009 (ip), vehicle: saline with Tween-80 101 % of control | dose: 400.0 mg/kg/injection, schedule: Q04DX003 (ip), vehicle: saline with Tween-80 103 % of control

COC(=O)C1Cc2c([nH]c3ccccc23)CN1 (configuration not stated)
inactive: dose: 9.0 mg/kg/injection, schedule: Q01DX009 (ip), vehicle: saline 95 % of control | dose: 9.0 mg/kg/injection, schedule: Q04DX003 (ip), vehicle: saline 100 % of control | dose: 18.0 mg/kg/injection, schedule: Q01DX009 (ip), vehicle: saline 101 % of control | dose: 18.0 mg/kg/injection, schedule: Q04DX003 (ip), vehicle: saline 98 % of control | dose: 37.0 mg/kg/injection, schedule: Q01DX009 (ip), vehicle: saline 105 % of control | dose: 37.0 mg/kg/injection, schedule: Q04DX003 (ip), vehicle: saline 93 % of control

CCOC(=S)SCC#CCSC(=S)OCC
inactive: dose: 100.0 mg/kg/injection, schedule: Q04DX002 (sc), vehicle: olive oil, sesame oil, peanut oil 104 % of control | dose: 200.0 mg/kg/injection, schedule: Q04DX002 (sc), vehicle: olive oil, sesame oil, peanut oil 114 % of control | dose: 400.0 mg/kg/injection, schedule: Q04DX002 (sc), vehicle: olive oil, sesame oil, peanut oil 96 % of control

C[n+]1ccc(/C=C/c2csc3ccccc23)cc1
inactive: dose: 5.0 mg/kg/injection, schedule: Q01DX001 (ip), vehicle: carboxymethylcellulose (CMC) 107 % of control | dose: 10.0 mg/kg/injection, schedule: Q01DX001 (ip), vehicle: carboxymethylcellulose (CMC) 96 % of control | dose: 20.0 mg/kg/injection, schedule: Q01DX001 (ip), vehicle: carboxymethylcellulose (CMC) 91 % of control | dose: 40.0 mg/kg/injection, schedule: Q01DX001 (ip), vehicle: carboxymethylcellulose (CMC) 98 % of control

COc1ccc2c(c1)CCC(C)(C#N)C2=O (configuration not stated)
inactive: dose: 100.0 mg/kg/injection, schedule: Q01DX009 (ip), vehicle: saline sonified 91 % of control | dose: 200.0 mg/kg/injection, schedule: Q01DX009 (ip), vehicle: saline sonified 96 % of control | dose: 400.0 mg/kg/injection, schedule: Q01DX009 (ip), vehicle: saline sonified 90 % of control

O=S(=O)(/N=C(Cl)/C(Cl)=N/S(=O)(=O)c1ccccc1)c1ccccc1
inactive: [12] 95 % of control | [13] 100 % of control | [14] 95 % of control

CCCCC(CCCC)NCCOC(=O)c1ccc(N)cc1
inactive: dose: 75.0 mg/kg/injection, schedule: Q01DX001 (ip), vehicle: other 102 % of control

Cc1cc(=O)[nH]n1-c1ccc([N+](=O)[O-])cc1
inactive: [12] 94 % of control | [13] 97 % of control | [14] 89 % of control

CC(C)O/N=C(/N)N=C(N)N
inactive: [4] 98 % of control | [5] 106 % of control

N#Cc1ccc(/C=N/N2CCN(/N=C/c3ccc(C#N)cc3)CC2)cc1
inactive: dose: 100.0 mg/kg/injection, schedule: Q01DX001 (ip), vehicle: carboxymethylcellulose (CMC) 96 % of control | dose: 200.0 mg/kg/injection, schedule: Q01DX001 (ip), vehicle: carboxymethylcellulose (CMC) 91 % of control | dose: 400.0 mg/kg/injection, schedule: Q01DX001 (ip), vehicle: carboxymethylcellulose (CMC) 94 % of control

O=S1(=O)CCN(c2ccccc2CC(c2c[nH]c3ccccc23)c2c[nH]c3ccccc23)CC1
inactive: [9] 89 % of control | [10] 86 % of control

Cc1ccccc1S(=O)(=O)c1cccs1
inactive: [9] 98 % of control | dose: 100.0 mg/kg/injection, schedule: Q04DX003 (ip), vehicle: acetone 98 % of control | [10] 95 % of control | dose: 200.0 mg/kg/injection, schedule: Q04DX003 (ip), vehicle: acetone 104 % of control | [11] 93 % of control | dose: 400.0 mg/kg/injection, schedule: Q04DX003 (ip), vehicle: acetone 93 % of control

— PubChem BioAssay AID248 (DTP/NCI, 2004)
